Measurements published in ChEMBL document CHEMBL4316596, “Antimicrobial Peptides with High Proteolytic Resistance for Combating Gram-Negative Bacteria” (J Med Chem, 2019).

Assays:
Acinetobacter baumannii [1] = test: Antimicrobial activity against Acinetobacter baumannii after 24 hrs by NCCLS-protocol based assay; assay type: functional
Pseudomonas aeruginosa [2] = test: Bactericidal activity against Pseudomonas aeruginosa CICC 21630 clinical isolates incubated for 4 hrs followed by culture spread on agar plates and cultured overnight; assay type: functional; details: CICC 21630, 4 h, read-out: MBC>99.9
Escherichia coli [3] = test: Bactericidal activity against Escherichia coli ATCC 25922 incubated for 4 hrs followed by culture spread on agar plates and cultured overnight in presence of CaCl2; assay type: functional; details: ATCC 25922, 4 h, read-out: MBC>99.9
Escherichia coli [4] = test: Bactericidal activity against Escherichia coli ATCC 25922 incubated for 4 hrs followed by culture spread on agar plates and cultured overnight in presence of NaCl; assay type: functional; details: ATCC 25922, 4 h, read-out: MBC>99.9
Pseudomonas aeruginosa [5] = test: Antimicrobial activity against Pseudomonas aeruginosa 26305 clinical isolates after 24 hrs by NCCLS-protocol based assay; assay type: functional; details: Pseudomonas aeruginosa, 26305, 24 h
Escherichia coli [6] = test: Bactericidal activity against Escherichia coli K88 incubated for 4 hrs followed by culture spread on agar plates and cultured overnight; assay type: functional; details: K88, 4 h, read-out: MBC>99.9
Escherichia coli [7] = test: Bactericidal activity against Escherichia coli ATCC 25922 incubated for 4 hrs followed by culture spread on agar plates and cultured overnight in presence of 25% serum albumin; assay type: functional; details: ATCC 25922, 4 h, read-out: MBC>99.9
Acinetobacter baumannii [8] = test: Bactericidal activity against Acinetobacter baumannii incubated for 4 hrs followed by culture spread on agar plates and cultured overnight; assay type: functional; details: read-out: MBC>99.9
Escherichia coli [9] = test: Antimicrobial activity against Escherichia coli ATCC 25922 after 24 hrs by NCCLS-protocol based assay; assay type: functional; details: ATCC 25922, 24 h
Escherichia coli [10] = test: Bactericidal activity against Escherichia coli K99 incubated for 4 hrs followed by culture spread on agar plates and cultured overnight; assay type: functional; details: K99, 4 h, read-out: MBC>99.9
Escherichia coli [11] = test: Bactericidal activity against Escherichia coli UB1005 incubated for 4 hrs followed by culture spread on agar plates and cultured overnight; assay type: functional; details: UB1005, 4 h, read-out: MBC>99.9
Pseudomonas aeruginosa [12] = test: Bactericidal activity against Pseudomonas aeruginosa PAO1 incubated for 4 hrs followed by culture spread on agar plates and cultured overnight; assay type: functional; details: PAO1, 4 h, read-out: MBC>99.9
Escherichia coli [13] = test: Bactericidal activity against Escherichia coli ATCC 25922 incubated for 4 hrs followed by culture spread on agar plates and cultured overnight in presence of 12.5% serum albumin; assay type: functional; details: ATCC 25922, 4 h, read-out: MBC>99.9
Klebsiella pneumoniae [14] = test: Antimicrobial activity against Klebsiella pneumoniae after 24 hrs by NCCLS-protocol based assay; assay type: functional
Salmonella typhimurium [15] = test: Antimicrobial activity against Salmonella typhimurium C7731 after 24 hrs by NCCLS-protocol based assay; assay type: functional, Salmonella enterica subsp. enterica serovar Typhimurium; details: Salmonella enterica, C7731, 24 h
Pseudomonas aeruginosa [16] = test: Antimicrobial activity against Pseudomonas aeruginosa ATCC 27853 after 24 hrs by NCCLS-protocol based assay; assay type: functional; details: ATCC 27853, 24 h
Escherichia coli [17] = test: Bactericidal activity against Escherichia coli 078 incubated for 4 hrs followed by culture spread on agar plates and cultured overnight; assay type: functional; details: Escherichia coli, 078, 4 h; read-out: MBC>99.9
Pseudomonas aeruginosa [18] = test: Bactericidal activity against Pseudomonas aeruginosa 26305 clinical isolates incubated for 4 hrs followed by culture spread on agar plates and cultured overnight; assay type: functional; details: Pseudomonas aeruginosa, 26305, 4 h; read-out: MBC>99.9
Escherichia coli [19] = test: Bactericidal activity against Escherichia coli ATCC 25922 incubated for 4 hrs followed by culture spread on agar plates and cultured overnight; assay type: functional; details: ATCC 25922, 4 h, read-out: MBC>99.9
Escherichia coli [20] = test: Bactericidal activity against Escherichia coli ATCC 25922 incubated for 4 hrs followed by culture spread on agar plates and cultured overnight in presence of 50% serum albumin; assay type: functional; details: ATCC 25922, 4 h, read-out: MBC>99.9
Klebsiella pneumoniae [21] = test: Bactericidal activity against Klebsiella pneumoniae incubated for 4 hrs followed by culture spread on agar plates and cultured overnight; assay type: functional; details: read-out: MBC>99.9
Escherichia coli [22] = test: Bactericidal activity against Escherichia coli ATCC 25922 incubated for 4 hrs followed by culture spread on agar plates and cultured overnight in presence of KCl; assay type: functional; details: ATCC 25922, 4 h, read-out: MBC>99.9
Pseudomonas aeruginosa [23] = test: Antimicrobial activity against Pseudomonas aeruginosa PAO1 after 24 hrs by NCCLS-protocol based assay; assay type: functional; details: PAO1, 24 h
[24] = Antimicrobial activity against Salmonella pullorum C7913 after 24 hrs by NCCLS-protocol based assay; assay type: functional, Salmonella enterica subsp. enterica serovar Pullorum; details: Salmonella enterica, C7913, 24 h
Salmonella typhimurium [25] = test: Antimicrobial activity against Salmonella typhimurium ATCC 14028 after 24 hrs by NCCLS-protocol based assay; assay type: functional, Salmonella enterica subsp. enterica serovar Typhimurium; details: Salmonella enterica, ATCC 14028, 24 h
Escherichia coli [26] = test: Antimicrobial activity against Escherichia coli UB1005 after 24 hrs by NCCLS-protocol based assay; assay type: functional; details: UB1005, 24 h
Escherichia coli [27] = test: Bactericidal activity against Escherichia coli ATCC 25922 incubated for 4 hrs followed by culture spread on agar plates and cultured overnight in presence of NH4Cl; assay type: functional; details: ATCC 25922, 4 h, read-out: MBC>99.9
Salmonella typhimurium [28] = test: Bactericidal activity against Salmonella typhimurium ATCC 14028 incubated for 4 hrs followed by culture spread on agar plates and cultured overnight; assay type: functional, Salmonella enterica subsp. enterica serovar Typhimurium; details: Salmonella enterica, ATCC 14028, 4 h; read-out: MBC>99.9
Escherichia coli [29] = test: Bactericidal activity against Escherichia coli ATCC 25922 incubated for 4 hrs followed by culture spread on agar plates and cultured overnight in presence of FeCl3; assay type: functional; details: ATCC 25922, 4 h, read-out: MBC>99.9
Pseudomonas aeruginosa [30] = test: Antimicrobial activity against Pseudomonas aeruginosa 25349 clinical isolates after 24 hrs by NCCLS-protocol based assay; assay type: functional; details: Pseudomonas aeruginosa, 25349, 24 h
Pseudomonas aeruginosa [31] = test: Antimicrobial activity against Pseudomonas aeruginosa CICC 21625 clinical isolates after 24 hrs by NCCLS-protocol based assay; assay type: functional; details: CICC 21625, 24 h
Pseudomonas aeruginosa [32] = test: Bactericidal activity against Pseudomonas aeruginosa ATCC 27853 incubated for 4 hrs followed by culture spread on agar plates and cultured overnight; assay type: functional; details: ATCC 27853, 4 h, read-out: MBC>99.9
Pseudomonas aeruginosa [33] = test: Bactericidal activity against Pseudomonas aeruginosa CICC 21625 clinical isolates incubated for 4 hrs followed by culture spread on agar plates and cultured overnight; assay type: functional; details: CICC 21625, 4 h, read-out: MBC>99.9
Salmonella typhimurium [34] = test: Bactericidal activity against Salmonella typhimurium C7731 incubated for 4 hrs followed by culture spread on agar plates and cultured overnight; assay type: functional, Salmonella enterica subsp. enterica serovar Typhimurium; details: Salmonella enterica, C7731, 4 h; read-out: MBC>99.9
Escherichia coli [35] = test: Bactericidal activity against Escherichia coli ATCC 25922 incubated for 4 hrs followed by culture spread on agar plates and cultured overnight in presence of MgCl2; assay type: functional; details: ATCC 25922, 4 h, read-out: MBC>99.9
Escherichia coli [36] = test: Bactericidal activity against Escherichia coli ATCC 25922 incubated for 4 hrs followed by culture spread on agar plates and cultured overnight in presence of ZnCl2; assay type: functional; details: ATCC 25922, 4 h, read-out: MBC>99.9
Escherichia coli [37] = test: Antimicrobial activity against Escherichia coli K88 after 24 hrs by NCCLS-protocol based assay; assay type: functional; details: K88, 24 h
[38] = Bactericidal activity against Salmonella pullorum C7913 incubated for 4 hrs followed by culture spread on agar plates and cultured overnight; assay type: functional, Salmonella enterica subsp. enterica serovar Pullorum; details: Salmonella enterica, C7913, 4 h; read-out: MBC>99.9
Pseudomonas aeruginosa [39] = test: Antimicrobial activity against Pseudomonas aeruginosa CICC 21630 clinical isolates after 24 hrs by NCCLS-protocol based assay; assay type: functional; details: CICC 21630, 24 h
Escherichia coli [40] = test: Antimicrobial activity against Escherichia coli K99 after 24 hrs by NCCLS-protocol based assay; assay type: functional; details: K99, 24 h
Escherichia coli [41] = test: Antimicrobial activity against Escherichia coli 078 after 24 hrs by NCCLS-protocol based assay; assay type: functional; details: Escherichia coli, 078, 24 h
Pseudomonas aeruginosa [42] = test: Bactericidal activity against Pseudomonas aeruginosa 25349 clinical isolates incubated for 4 hrs followed by culture spread on agar plates and cultured overnight; assay type: functional; details: Pseudomonas aeruginosa, 25349, 4 h; read-out: MBC>99.9

For H-IKPIIKPIIKPIIKPIIKPIIKPI-NH2, the MIC95 (Acinetobacter baumannii [1]) was 16 µM, the MBC (Pseudomonas aeruginosa [2]) was over 64 µM and the MBC (Escherichia coli [3]) was over 128 µM. It also gave an MBC (Escherichia coli [4]) of over 128 µM, an MIC95 (Pseudomonas aeruginosa [5]) of over 64 µM and an MBC (Escherichia coli [6]) of 8 µM. For the same substance, the MBC (Escherichia coli [7]) was over 128 µM, the MBC (Acinetobacter baumannii [8]) was 16 µM and the MIC95 (Escherichia coli [9]) was 16 µM. For the same substance, the MBC (Escherichia coli [10]) was 16 µM, the MBC (Escherichia coli [11]) was 32 µM and the MBC (Pseudomonas aeruginosa [12]) was over 64 µM. The MBC (Escherichia coli [13]) was over 128 µM, the MIC95 (Klebsiella pneumoniae [14]) was over 64 µM and the MIC95 (Salmonella typhimurium [15]) was over 64 µM. The MIC95 (Pseudomonas aeruginosa [16]) was over 64 µM, the MBC (Escherichia coli [17]) was over 64 µM and the MBC (Pseudomonas aeruginosa [18]) was over 64 µM. The MBC (Escherichia coli [19]) was 32 µM, the MBC (Escherichia coli [20]) was over 128 µM and the MBC (Klebsiella pneumoniae [21]) was over 64 µM. For the same substance, the MBC (Escherichia coli [22]) was over 128 µM, the MIC95 (Pseudomonas aeruginosa [23]) was over 64 µM and the MIC95 [24] was 64 µM. For the same substance, the MIC95 (Salmonella typhimurium [25]) was 64 µM, the MIC95 (Escherichia coli [26]) was 16 µM and the MBC (Escherichia coli [27]) was over 128 µM. It also gave an MBC (Salmonella typhimurium [28]) of over 64 µM, an MBC (Escherichia coli [29]) of over 128 µM and an MIC95 (Pseudomonas aeruginosa [30]) of over 64 µM. It also gave an MIC95 (Pseudomonas aeruginosa [31]) of over 64 µM, an MBC (Pseudomonas aeruginosa [32]) of over 64 µM and an MBC (Pseudomonas aeruginosa [33]) of over 64 µM. It also gave an MBC (Salmonella typhimurium [34]) of over 64 µM, an MBC (Escherichia coli [35]) of over 128 µM and an MBC (Escherichia coli [36]) of over 128 µM. The MIC95 (Escherichia coli [37]) was 4 µM, the MBC [38] was over 64 µM and the MIC95 (Pseudomonas aeruginosa [39]) was over 64 µM. For the same substance, the MIC95 (Escherichia coli [40]) was 8 µM, the MIC95 (Escherichia coli [41]) was 64 µM and the MBC (Pseudomonas aeruginosa [42]) was over 64 µM.

Substance H-IRPIIRPIIRPIIRPIIRPIIRPI-NH2 has an MIC95 (Acinetobacter baumannii [1]) of 4 µM, an MBC (Pseudomonas aeruginosa [2]) of over 64 µM and an MBC (Escherichia coli [3]) of over 128 µM. For the same substance, the MBC (Escherichia coli [4]) was 32 µM, the MIC95 (Pseudomonas aeruginosa [5]) was over 64 µM and the MBC (Escherichia coli [6]) was 1 µM. The MBC (Escherichia coli [7]) was 32 µM, the MBC (Acinetobacter baumannii [8]) was 8 µM and the MIC95 (Escherichia coli [9]) was 2 µM. It also gave an MBC (Escherichia coli [10]) of 4 µM, an MBC (Escherichia coli [11]) of 2 µM and an MBC (Pseudomonas aeruginosa [12]) of 16 µM. The MBC (Escherichia coli [13]) was 16 µM, the MIC95 (Klebsiella pneumoniae [14]) was 16 µM and the MIC95 (Salmonella typhimurium [15]) was 4 µM. The MIC95 (Pseudomonas aeruginosa [16]) was 8 µM, the MBC (Escherichia coli [17]) was 2 µM and the MBC (Pseudomonas aeruginosa [18]) was over 64 µM. For the same substance, the MBC (Escherichia coli [19]) was 2 µM, the MBC (Escherichia coli [20]) was 64 µM and the MBC (Klebsiella pneumoniae [21]) was 8 µM. For the same substance, the MBC (Escherichia coli [22]) was 4 µM, the MIC95 (Pseudomonas aeruginosa [23]) was 8 µM and the MIC95 [24] was 4 µM. The MIC95 (Salmonella typhimurium [25]) was 4 µM, the MIC95 (Escherichia coli [26]) was 2 µM and the MBC (Escherichia coli [27]) was 8 µM. It also gave an MBC (Salmonella typhimurium [28]) of 4 µM, an MBC (Escherichia coli [29]) of 8 µM and an MIC95 (Pseudomonas aeruginosa [30]) of over 64 µM. For the same substance, the MIC95 (Pseudomonas aeruginosa [31]) was over 64 µM, the MBC (Pseudomonas aeruginosa [32]) was 16 µM and the MBC (Pseudomonas aeruginosa [33]) was over 64 µM. For the same substance, the MBC (Salmonella typhimurium [34]) was 4 µM, the MBC (Escherichia coli [35]) was 8 µM and the MBC (Escherichia coli [36]) was 4 µM. The MIC95 (Escherichia coli [37]) was 1 µM, the MBC [38] was 8 µM and the MIC95 (Pseudomonas aeruginosa [39]) was over 64 µM. It also gave an MIC95 (Escherichia coli [40]) of 2 µM, an MIC95 (Escherichia coli [41]) of 2 µM and an MBC (Pseudomonas aeruginosa [42]) of over 64 µM.
